# Like-named read-outs stand apart in the source and are kept apart here.
# Biological target: Polθ protein (amino acids 2-2590) (Homo sapiens, UniProt O75417)
# Assay: Polθ full length enzyme potency assay (PicoGreen)
# Settings: full length N-His, C-term FLAG tagged Polθ, PicoGreen fluorescence, 12 point concentration response
# Sequence of Polθ protein (amino acids 2-2590) (O75417 2-2590): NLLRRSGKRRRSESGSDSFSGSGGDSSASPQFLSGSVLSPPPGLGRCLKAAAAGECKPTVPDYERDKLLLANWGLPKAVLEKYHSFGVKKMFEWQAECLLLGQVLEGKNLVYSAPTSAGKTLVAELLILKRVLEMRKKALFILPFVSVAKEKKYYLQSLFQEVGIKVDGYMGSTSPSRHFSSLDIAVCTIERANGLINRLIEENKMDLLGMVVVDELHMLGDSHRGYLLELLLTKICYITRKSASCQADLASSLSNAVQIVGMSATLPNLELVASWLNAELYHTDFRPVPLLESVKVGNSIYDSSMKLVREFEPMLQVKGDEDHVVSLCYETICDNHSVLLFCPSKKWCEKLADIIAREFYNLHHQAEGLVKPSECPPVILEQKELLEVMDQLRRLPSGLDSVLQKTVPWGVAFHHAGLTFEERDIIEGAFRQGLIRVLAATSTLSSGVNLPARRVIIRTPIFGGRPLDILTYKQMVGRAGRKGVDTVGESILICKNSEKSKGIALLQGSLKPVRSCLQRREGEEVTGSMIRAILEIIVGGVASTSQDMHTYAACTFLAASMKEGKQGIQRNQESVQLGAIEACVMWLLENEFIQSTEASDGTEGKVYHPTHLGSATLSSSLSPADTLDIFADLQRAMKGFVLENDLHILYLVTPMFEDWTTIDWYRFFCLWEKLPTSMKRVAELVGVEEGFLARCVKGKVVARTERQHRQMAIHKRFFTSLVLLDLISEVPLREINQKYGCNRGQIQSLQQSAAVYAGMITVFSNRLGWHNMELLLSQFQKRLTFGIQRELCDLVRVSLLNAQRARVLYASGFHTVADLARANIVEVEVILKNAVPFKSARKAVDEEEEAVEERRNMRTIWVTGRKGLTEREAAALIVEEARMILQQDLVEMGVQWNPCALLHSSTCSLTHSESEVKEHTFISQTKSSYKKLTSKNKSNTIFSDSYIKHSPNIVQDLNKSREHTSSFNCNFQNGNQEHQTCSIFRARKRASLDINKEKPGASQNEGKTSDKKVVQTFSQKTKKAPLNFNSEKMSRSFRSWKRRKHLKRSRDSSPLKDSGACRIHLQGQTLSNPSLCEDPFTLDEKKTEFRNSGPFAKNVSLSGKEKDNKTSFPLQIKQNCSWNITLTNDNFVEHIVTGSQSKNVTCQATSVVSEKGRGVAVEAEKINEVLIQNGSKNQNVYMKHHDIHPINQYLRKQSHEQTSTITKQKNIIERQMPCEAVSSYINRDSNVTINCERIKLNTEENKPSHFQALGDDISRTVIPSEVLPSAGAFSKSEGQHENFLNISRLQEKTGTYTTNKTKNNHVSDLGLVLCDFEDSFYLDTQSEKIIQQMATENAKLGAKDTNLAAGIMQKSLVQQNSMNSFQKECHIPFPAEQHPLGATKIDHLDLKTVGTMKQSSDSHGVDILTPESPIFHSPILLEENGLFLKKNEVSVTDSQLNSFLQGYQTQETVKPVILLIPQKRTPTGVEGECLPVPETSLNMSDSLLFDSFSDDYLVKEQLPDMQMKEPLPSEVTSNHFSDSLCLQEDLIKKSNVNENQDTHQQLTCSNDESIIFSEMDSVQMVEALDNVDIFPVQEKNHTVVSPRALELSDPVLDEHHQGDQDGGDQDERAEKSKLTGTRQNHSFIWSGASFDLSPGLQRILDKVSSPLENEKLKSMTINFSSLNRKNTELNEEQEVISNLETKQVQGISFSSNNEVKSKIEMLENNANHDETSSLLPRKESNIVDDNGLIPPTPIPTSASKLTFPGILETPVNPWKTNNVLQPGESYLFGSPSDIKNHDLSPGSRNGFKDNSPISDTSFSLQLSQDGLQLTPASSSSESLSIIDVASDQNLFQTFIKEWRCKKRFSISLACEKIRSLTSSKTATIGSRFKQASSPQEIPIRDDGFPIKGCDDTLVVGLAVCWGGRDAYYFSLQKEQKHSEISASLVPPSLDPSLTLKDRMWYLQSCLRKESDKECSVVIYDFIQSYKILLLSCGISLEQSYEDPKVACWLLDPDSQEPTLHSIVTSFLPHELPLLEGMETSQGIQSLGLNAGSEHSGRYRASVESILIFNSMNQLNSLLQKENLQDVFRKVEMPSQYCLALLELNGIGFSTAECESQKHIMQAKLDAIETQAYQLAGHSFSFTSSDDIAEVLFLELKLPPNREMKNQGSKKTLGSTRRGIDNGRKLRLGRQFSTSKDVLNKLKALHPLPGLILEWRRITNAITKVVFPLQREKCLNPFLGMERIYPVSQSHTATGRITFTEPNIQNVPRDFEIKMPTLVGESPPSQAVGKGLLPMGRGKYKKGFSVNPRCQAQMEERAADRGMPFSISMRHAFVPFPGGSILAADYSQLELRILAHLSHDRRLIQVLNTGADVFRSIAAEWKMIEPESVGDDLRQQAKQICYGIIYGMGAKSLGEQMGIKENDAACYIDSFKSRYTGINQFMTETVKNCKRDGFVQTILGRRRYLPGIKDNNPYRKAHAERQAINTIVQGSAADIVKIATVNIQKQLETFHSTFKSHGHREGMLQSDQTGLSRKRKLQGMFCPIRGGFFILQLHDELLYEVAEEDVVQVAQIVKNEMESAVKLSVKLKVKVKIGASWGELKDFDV
IC50 (Polθ IC50 (nM)) [nM],IC50 (read-out: Polθ IC50) [nM],Structure (SMILES)
23,,"Cc1cc(C(F)(F)F)cc(N2C(=O)OC[C@H]2C(=O)N(C)c2ccc(Cl)c(F)c2F)n1 [Example 101, (S)-N-(4-Chloro-2,3-difluorophenyl)-N-methyl-3-(6-methyl-4-(trifluoromethyl)pyridin-2-yl)-2-oxooxazolidine-4-carboxamide]"
4,,"Cc1cc(C(F)(F)F)cc(N2C(=O)NC[C@H]2C(=O)N(C)c2ccc(F)c(Cl)c2)n1 [Example 156, (S)—N-(3-Chloro-4-fluorophenyl)-N-methyl-3-(6-methyl-4-(trifluoromethyl)pyridin-2-yl)-2-oxoimidazolidine-4-carboxamide]"
208,,"CCN(C(=O)[C@@H]1C[C@H](NC(C)=O)C(=O)N1c1cc(C(F)(F)F)cc(C)n1)c1ccc(F)c(Cl)c1 [Example 62, (2S,4S)-4-Acetamido-N-(3-chloro-4-fluorophenyl)-N-ethyl-1-(6-methyl-4-(trifluoromethyl)pyridin-2-yl)-5-oxopyrrolidine-2-carboxamide]"
240,,"Cc1cc(C(F)(F)F)c(C#N)c(N2[C@H](C)CC[C@H]2C(=O)N(C)c2ccc(F)c(Cl)c2)n1 [Example 241, (2S,5R)—N-(3-Chloro-4-fluorophenyl)-1-(3-cyano-6-methyl-4-(trifluoromethyl)pyridin-2-yl)-N,5-dimethylpyrrolidine-2-carboxamide]"
11,,"CC(=O)N1CCN(CCCN2C[C@@H](C(=O)N(C)c3ccc(F)c(Cl)c3F)N(c3cc(C(F)(F)F)cc(C)n3)C2=O)CC1 [Example 221, (S)-1-(3-(4-Acetylpiperazin-1-yl)propyl)-N-(3-chloro-2,4-difluorophenyl)-N-methyl-3-(6-methyl-4-(trifluoromethyl)pyridin-2-yl)-2-oxoimidazolidine-4-carboxamide]"
94,,"CN(C(=O)[C@@H]1COC(=O)N1c1cc(OC(F)F)cc(Cl)n1)c1ccc(F)c(Cl)c1 [Example 120, (S)-3-(6-Chloro-4-(difluoromethoxy)pyridin-2-yl)-N-(3-chloro-4-fluorophenyl)-N-methyl-2-oxooxazolidine-4-carboxamide]"
26,,"CCN(C(=O)[C@@H]1C[C@H](N2CCOC[C@@H]2CO)CN1c1nc(C)cc(C(F)(F)F)c1C#N)c1ccc(F)c(Cl)c1 [Example 152, (2S,4S)-N-(3-Chloro-4-fluorophenyl)-1-(3-cyano-6-methyl-4-(trifluoromethyl)pyridin-2-yl)-N-ethyl-4-((S)-3-(hydroxymethyl)morpholino)pyrrolidine-2-carboxamide]"
19,,"Cc1cc(C(F)(F)F)cc(N2C(=O)N(CC(O)CO)C[C@H]2C(=O)N(C)c2ccc(F)c(Cl)c2F)n1 (stereo partly drawn) [Example 226, (4S)—N-(3-Chloro-2,4-difluorophenyl)-1-(2,3-dihydroxypropyl)-N-methyl-3-(6-methyl-4-(trifluoromethyl)pyridin-2-yl)-2-oxoimidazolidine-4-carboxamide]"
,7,"Cc1cccc(N(C)C(=O)[C@@H]2COC(=O)N2c2cc(C(F)(F)F)cc(C)n2)c1 [Example 58, (S)—N-Methyl-3-(6-methyl-4-(trifluoromethyl)pyridin-2-yl)-2-oxo-N-(m-tolyl)oxazolidine-4-carboxamide]"
25,,"Cc1cc(C(C)C)cc(N2C(=O)OC[C@H]2C(=O)N(C)c2ccc(F)c(Cl)c2)n1 [Example 118, (S)—N-(3-Chloro-4-fluorophenyl)-3-(4-isopropyl-6-methylpyridin-2-yl)-N-methyl-2-oxooxazolidine-4-carboxamide]"
7,,"Cc1cc(C(F)(F)F)cc(N2C(=O)[C@@H](O)[C@@H](O)[C@H]2C(=O)N(C)c2ccc3cc[nH]c3n2)n1 [Example 166, (2S,3S,4S)-3,4-Dihydroxy-N-methyl-1-(6-methyl-4-(trifluoromethyl)pyridin-2-yl)-5-oxo-N-(1H-pyrrolo[2,3-b]pyridin-6-yl)pyrrolidine-2-carboxamide]"
24,,"Cc1cc(C(F)(F)F)cc(N2C(=O)[C@@H](COCc3ccccc3)C[C@H]2C(=O)N(C)c2ccc(F)c(Cl)c2)n1 [Example 76, (2S,4R)-4-((Benzyloxy)methyl)-N-(3-chloro-4-fluorophenyl)-N-methyl-1-(6-methyl-4-(trifluoromethyl)pyridin-2-yl)-5-oxopyrrolidine-2-carboxamide]"
7,,"Cc1cccc(N(C)C(=O)[C@@H]2CCC(=O)N2c2cc(C(F)(F)F)cc(C)n2)c1 [Example 59, (S)—N-Methyl-1-(6-methyl-4-(trifluoromethyl)pyridin-2-yl)-5-oxo-N-(m-tolyl)pyrrolidine-2-carboxamide]"
5,,"CCN(C(=O)[C@@H]1C[C@H](N2CCOC(CO)C2)CN1c1nc(C)cc(C(F)(F)F)c1C#N)c1ccc(C)c(Cl)c1 (stereo partly drawn) [Example 149, (2S,4S)-N-(3-Chloro-4-methylphenyl)-1-(3-cyano-6-methyl-4-(trifluoromethyl)pyridin-2-yl)-N-ethyl-4-(2-(hydroxymethyl)morpholino)pyrrolidine-2-carboxamide]"
32,,"Cc1cc(C(F)(F)F)cc(N2C(=O)[C@H](O)[C@H](O)[C@H]2C(=O)N(C)c2ccc(F)c(Cl)c2)n1 [Example 72, (2S,3R,4R)—N-(3-Chloro-4-fluorophenyl)-3,4-dihydroxy-N-methyl-1-(6-methyl-4-(trifluoromethyl)pyridin-2-yl)-5-oxopyrrolidine-2-carboxamide]"
163,,"CCN(C(=O)[C@@H]1C[C@H](N(C)C2COC2)CN1c1cc(C(F)(F)F)cc(C)n1)c1ccc(F)c(F)c1 [Example 146, (2S,4S)-N-(3,4-Difluorophenyl)-N-ethyl-4-(methyl(oxetan-3-yl)amino)-1-(6-methyl-4-(trifluoromethyl)pyridin-2-yl)pyrrolidine-2-carboxamide]"
62,,"Cc1cc(C(F)(F)F)cc(N2C(=O)N(CCN=S(C)(C)=O)C[C@H]2C(=O)N(C)c2ccc(F)c(Cl)c2)n1 [Example 228, (S)—N-(3-Chloro-4-fluorophenyl)-1-(2-((dimethyl(oxo)-16-sulfaneylidene)amino)ethyl)-N-methyl-3-(6-methyl-4-(trifluoromethyl)pyridin-2-yl)-2-oxoimidazolidine-4-carboxamide]"
16,,"Cc1cc(C(F)(F)F)cc(N2C(=O)OC[C@H]2C(=O)N(C)c2ccc(F)c(Cl)c2)n1 [Example 83, (S)—N-(3-Chloro-4-fluorophenyl)-N-methyl-3-(6-methyl-4-(trifluoromethyl)pyridin-2-yl)-2-oxooxazolidine-4-carboxamide]"
10,,"Cc1cc(C(F)(F)F)cc(N2C(=O)N(CC(=O)N(C)C)C[C@H]2C(=O)N(C)c2ccc(F)c(Cl)c2)n1 [Example 185, (S)-N-(3-Chloro-4-fluorophenyl)-1-(2-(dimethylamino)-2-oxoethyl)-N-methyl-3-(6-methyl-4-(trifluoromethyl)pyridin-2-yl)-2-oxoimidazolidine-4-carboxamide]"
324,,"Cc1cc(C(F)(F)F)cc(N2C(=O)OC[C@H]2C(=O)N(C)c2ccc(F)c(O)c2)n1 [Example 106, (S)—N-(4-Fluoro-3-hydroxyphenyl)-N-methyl-3-(6-methyl-4-(trifluoromethyl)pyridin-2-yl)-2-oxooxazolidine-4-carboxamide]"
28,,"Cc1cc(C(F)(F)F)cc(N2C(=O)NC[C@H]2C(=O)N(C)c2ccc3c(C)n[nH]c3c2)n1 [Example 238, (S)—N-Methyl-N-(3-methyl-1H-indazol-6-yl)-3-(6-methyl-4-(trifluoromethyl)pyridin-2-yl)-2-oxoimidazolidine-4-carboxamide]"
7,,"CC(=O)N(C)C1CCN(CCN2C[C@@H](C(=O)N(C)c3ccc(F)c(Cl)c3F)N(c3cc(C(F)(F)F)cc(C)n3)C2=O)C1 (stereo partly drawn) [Example 207, (4S)-N-(3-Chloro-2,4-difluoro-phenyl)-N-methyl-3-(6-methyl-4-(trifluoromethyl)pyridin-2-yl)-1-(2-(3-(N-methylacetamido)-pyrrolidin-1-yl)ethyl)-2-oxoimidazolidine-4-carboxamide]"
13,,"Cc1cc(C(F)(F)F)cc(N2C(=O)N(CCC(=O)N(C)C)C[C@H]2C(=O)N(C)c2ccc(F)c(Cl)c2)n1 [Example 190, (S)—N-(3-Chloro-4-fluorophenyl)-1-(3-(dimethylamino)-3-oxopropyl)-N-methyl-3-(6-methyl-4-(trifluoromethyl)pyridin-2-yl)-2-oxoimidazolidine-4-carboxamide]"
4,,"Cc1cc(C(F)(F)F)cc(N2C(=O)OC[C@H]2C(=O)N(C)c2ccc(F)c(C)c2F)n1 [Example 100, (S)-N-(2,4-Difluoro-3-methylphenyl)-N-methyl-3-(6-methyl-4-(trifluoromethyl)pyridin-2-yl)-2-oxooxazolidine-4-carboxamide]"
19,,"Cc1cc(C(F)(F)F)cc(N2C(=O)OC[C@H]2C(=O)N(C)c2ccc(C)c(O)c2)n1 [Example 105, (S)—N-(3-Hydroxy-4-methylphenyl)-N-methyl-3-(6-methyl-4-(trifluoromethyl)pyridin-2-yl)-2-oxooxazolidine-4-carboxamide]"
11,,"Cc1cc(C(F)(F)F)c(C#N)c(N2C[C@@H](O)C[C@H]2C(=O)N(C)c2ccc(F)c(C)c2)n1 [Example 6, (2S,4S)-1-(3-Cyano-6-methyl-4-(trifluoromethyl)pyridin-2-yl)-N-(4-fluoro-3-methylphenyl)-4-hydroxy-N-methylpyrrolidine-2-carboxamide]"
69,,"Cc1cc(C(F)(F)F)cc(N2C(=O)[C@H]3OC(C)(C)O[C@H]3[C@H]2C(=O)N(C)c2ccc(F)c(Cl)c2F)n1 [Example 69, (3aS,4S,6aS)—N-(3-Chloro-2,4-difluorophenyl)-N,2,2-trimethyl-5-(6-methyl-4-(trifluoromethyl)-pyridin-2-yl)-6-oxotetrahydro-4H-[1,3]dioxolo[4,5-c]pyrrole-4-carboxamide]"
160,,"CCN(C(=O)[C@@H]1C[C@H](N(C)[C@H]2CCC[C@H]2O)CN1c1cc(C(F)(F)F)cc(C)n1)c1ccc(F)c(F)c1 [Example 142, (2S,4S)-N-(3,4-Difluorophenyl)-N-ethyl-4-(((1S,2R)-2-hydroxycyclopentyl)(methyl)amino)-1-(6-methyl-4-(trifluoromethyl)pyridin-2-yl)pyrrolidine-2-carboxamide]"

# Reference: patent US12358886B2, “Heterocyclic compounds for use in the treatment of cancer” (Artios Pharma Limited, priority 2019, dated 2025)
